Experimental data from patent publication EP4707280A1, “1,4-CINEOLE DERIVATIVE AND INTERMEDIATE THEREOF, HERBICIDE CONTAINING SAID DERIVATIVE AS ACTIVE INGREDIENT, METHOD FOR USING HERBICIDE, AND METHOD FOR PREPARING AGROCHEMICAL COMPOSITION” (HOKKO CHEMICAL INDUSTRY CO., LTD., priority 2023, dated 2024).

How the values were obtained:
Format in all cases: in vivo
[1] = test system: Echinochloa crus-galli var. formosensis; experiment: Test Example 1: herbicidal effect test by soil application in paddy rice; conditions: 120 g active ingredient per 10 ares, applied immediately after sowing, flooded pots, 14 days after application; for pest or weed control at 1200 g/ha: Echinochloa crus-galli, soil, 336 h, read-out: weed inhibition rate
Method: Wagner pots with an area of […] were filled with paddy soil, followed by addition of water and incorporation of chemical fertilizer (N:P:K = 16:16:16), after which puddling was performed. After that, seeds of Echinochloa crus-galli var. formosensis, broad-leaved weeds ([…] Monochoria vaginalis), and Scirpus juncoides were sown at a depth of 0 cm to 1 cm, 30 seeds each. Immediately after sowing, the pots were flooded and a water depth of approximately 3 cm was maintained. Subsequent management was conducted in a glass greenhouse. Immediately thereafter, an emulsifiable concentrate prepared according to Formulation Example 5 using the compound shown below was diluted with water, and a specified amount of the diluted solution was applied by dropper. The amount of the active ingredient to be applied was equivalent to 120 g per 10 ares.

[2] = test system: Echinochloa crus-galli var. formosensis; experiment: Test Example 2: herbicidal effect test by application during growth period of paddy rice; conditions: 120 g per 10 ares, applied seven days after sowing, flooded pots, 14 days after application; for inhibition at 1200 g/ha: Echinochloa crus-galli, read-out: weed inhibition rate
Method: (§1) The present test was conducted in duplicate for each chemical concentration group, and the weed inhibition rate (%) was determined 14 days after chemical application using the following formula (Math. 1). [formula]
Wagner pots with an area of […] were filled with paddy soil, followed by addition of water and incorporation of chemical fertilizer (N:P:K = 16:16:16), after which puddling was performed. After that, seeds of Echinochloa crus-galli var. formosensis, broad-leaved weeds (Monochoria vaginalis), and Scirpus juncoides were sown at a depth of 0 cm to 1 cm, 30 seeds each. Immediately after sowing, the pots were flooded and a water depth of approximately 3 cm was maintained. Subsequent management was conducted in a glass greenhouse. Seven days after sowing, an emulsifiable concentrate prepared according to Formulation Example 5 using the compound shown below was diluted with water, and a specified amount of the diluted solution was applied by dropper. The amount of the active ingredient to be applied was equivalent to 120 g per 10 ares. The test was conducted in duplicate for each chemical concentration group, and the herbicidal effect was evaluated 14 days after chemical application using the same criteria as in Test Example 1.

Digitaria ciliaris [3] = experiment: Test Example 3: herbicidal effect test by soil application in upland field; conditions: 120 g per 10 ares, sprayed one day after sowing, 14 days after application; for inhibition at 1200 g/ha: Digitaria ciliaris, read-out: weed inhibition rate
Method: as §1
(§2) Pots with an area of 36 cm^2 were filled with upland soil (alluvial loam), twenty seeds each of weeds of Digitaria ciliaris, Echinochloa crus-galli, Chenopodium album, and Amaranthus viridis were uniformly mixed with the top 1 cm layer of soil and the surface was lightly pressed down. One day after sowing, an emulsifiable concentrate prepared according to Formulation Example 5 using the compound shown below was diluted with water, and the diluted solution was sprayed onto the soil surface at a rate of 100 liters per 10 ares. The amount of the active ingredient to be applied was equivalent to 120 g per 10 ares. Fourteen days after chemical application, the herbicidal effect was evaluated according to the same criteria as in Test Example 1.

Echinochloa crus-galli [4] = experiment: as above; conditions: 120 g per 10 ares, sprayed one day after sowing, 14 days after application; for inhibition at 1200 g/ha: Echinochloa crus-galli, read-out: weed inhibition rate
Method: as §1, §2

Digitaria ciliaris [5] = experiment: Test Example 4: herbicidal effect test by stem and leaf treatment in upland field; conditions: 120 g per 10 ares, sprayed seven days after sowing, upland soil, 14 days after application; for inhibition at 1200 g/ha: Digitaria ciliaris, read-out: weed inhibition rate
Method: as §1
as §2, with “crus-galli,” for “crus-galli, Chenopodium album,”, “Seven days” for “One day”

Echinochloa crus-galli [6] = experiment: as above; conditions: 120 g per 10 ares, sprayed seven days after sowing, upland soil, 14 days after application; for inhibition at 1200 g/ha: Echinochloa crus-galli, read-out: weed inhibition rate

CC(C)[C@]12C[C@@H](OCc3ccccc3F)[C@](C)(C[C@@H]1OCc1ccccc1)O2 [1-1606, (1S,2R,4R,SS)-2-[(2-fluorophenyl)methoxy]-1-methyl-5-phenylmethoxy-4-isopropyl-7-oxabicyclo[2.2.1]heptane]
≥ 80%: weed inhibition rate [1] | weed inhibition rate [2] | weed inhibition rate (Digitaria ciliaris [3]) | weed inhibition rate (Echinochloa crus-galli [4]) | weed inhibition rate (Digitaria ciliaris [5]) | weed inhibition rate (Echinochloa crus-galli [6])

Cc1cccc(C)c1CO[C@H]1C[C@@]2(C(C)C)O[C@]1(C)C[C@H]2I [1-1118, (1R,2S,4S,5R)-2-[(2,6-dimethylphenyl)methoxy]-5-iodo-1-methyl-4-isopropyl-7-oxabicyclo[2.2.1]heptane]
≥ 80%: pest or weed control at 1200 g/ha [1] | inhibition at 1200 g/ha [2] | inhibition at 1200 g/ha (Digitaria ciliaris [3]) | inhibition at 1200 g/ha (Echinochloa crus-galli [4]) | inhibition at 1200 g/ha (Digitaria ciliaris [5]) | inhibition at 1200 g/ha (Echinochloa crus-galli [6])

CC(C)[C@@]12C[C@H](OCc3c(F)cccc3F)[C@@](C)(C[C@H]1Br)O2 [1-1052, (1R,28,48,5R)-5-bromo-2-[(2,6-difluorophenyl)methoxy]-1-methyl-4-isopropyl-7-oxabicyclo[2.2.1]heptane]
≥ 80%: weed inhibition rate [1] | weed inhibition rate [2] | weed inhibition rate (Digitaria ciliaris [3]) | weed inhibition rate (Echinochloa crus-galli [4]) | weed inhibition rate (Digitaria ciliaris [5]) | weed inhibition rate (Echinochloa crus-galli [6])

CC(C)[C@@]12C[C@H](OCc3ccccc3Br)[C@@](C)(C[C@H]1Br)O2 [1-1034, (1R,2S,4S,5R)-5-bromo-2-[(2-bromophenyl)methoxy]-1-methyl-4-isopropyl-7-oxabicyclo[2.2.1]heptane]
≥ 80%: pest or weed control at 1200 g/ha [1] | inhibition at 1200 g/ha [2] | inhibition at 1200 g/ha (Digitaria ciliaris [3]) | inhibition at 1200 g/ha (Echinochloa crus-galli [4]) | inhibition at 1200 g/ha (Digitaria ciliaris [5]) | inhibition at 1200 g/ha (Echinochloa crus-galli [6])

CC(C)C12CC(OCc3ccccc3C(F)(F)F)C(C)(CC1Br)O2 (stereo not drawn) [1-1367, 5-bromo-1-methyl-4-isopropyl-2-[[2-(trifluoromethyl)phenyl]methoxy]-7-oxabicyclo[2.2.1]heptane]
≥ 80%: pest or weed control at 1200 g/ha [1] | inhibition at 1200 g/ha [2] | inhibition at 1200 g/ha (Digitaria ciliaris [3]) | inhibition at 1200 g/ha (Echinochloa crus-galli [4]) | inhibition at 1200 g/ha (Digitaria ciliaris [5]) | inhibition at 1200 g/ha (Echinochloa crus-galli [6])

CC(C)[C@@]12C[C@H](OCc3c(Cl)cccc3Cl)[C@@](C)(C[C@H]1I)O2 [1-1120, (1R,2S,4S,5R)-2-[(2,6-dichlorophenyl)methoxy]-5-iodo-1-methyl-4-isopropyl-7-oxabicyclo[2.2.1]heptane]
≥ 80%: pest or weed control at 1200 g/ha [1] | inhibition at 1200 g/ha [2] | inhibition at 1200 g/ha (Digitaria ciliaris [3]) | inhibition at 1200 g/ha (Echinochloa crus-galli [4]) | inhibition at 1200 g/ha (Digitaria ciliaris [5]) | inhibition at 1200 g/ha (Echinochloa crus-galli [6])

CC(C)[C@]12C[C@@H](OCc3cccc(C(F)(F)F)c3)[C@](C)(C[C@@H]1Br)O2 [1-701, (1S,2R,4R,5S)-5-bromo-l-methyl-4-isopropyl-2-[[3-(trifluoromethyl)phenyl]methoxy]-7-oxabicyclo[2.2.1]heptane]
≥ 80%: weed inhibition rate [1] | weed inhibition rate [2] | weed inhibition rate (Digitaria ciliaris [3]) | weed inhibition rate (Echinochloa crus-galli [4]) | weed inhibition rate (Digitaria ciliaris [5]) | weed inhibition rate (Echinochloa crus-galli [6])

CC(C)C12CC(OCc3cccc(I)c3)C(C)(CC1Br)O2 (stereo not drawn) [1-1365, 5-bromo-2-[(3-iodophenyl)methoxy]-1-methyl-4-isopropyl-7-oxabicyclo[2.2.1]heptane]
≥ 80%: pest or weed control at 1200 g/ha [1] | inhibition at 1200 g/ha [2] | inhibition at 1200 g/ha (Digitaria ciliaris [3]) | inhibition at 1200 g/ha (Echinochloa crus-galli [4]) | inhibition at 1200 g/ha (Digitaria ciliaris [5]) | inhibition at 1200 g/ha (Echinochloa crus-galli [6])

CC(C)C12CC(OCc3ccccc3OC(F)(F)F)C(C)(CC1Br)O2 (stereo not drawn) [1-1352, 5-bromo-1-methyl-4-isopropyl-2-[[2-(trifluoromethoxy)phenyl]methoxy]-7-oxabicyclo[2.2.1]heptane]
≥ 80%: pest or weed control at 1200 g/ha [1] | inhibition at 1200 g/ha [2] | inhibition at 1200 g/ha (Digitaria ciliaris [3]) | inhibition at 1200 g/ha (Echinochloa crus-galli [4]) | inhibition at 1200 g/ha (Digitaria ciliaris [5]) | inhibition at 1200 g/ha (Echinochloa crus-galli [6])

CC(C)[C@]12C[C@@H](OCc3ccc(Br)cc3)[C@](C)(C[C@@H]1Br)O2 [1-696, (1S,2R,4R,5S)-5-bromo-2-[(4-bromophenyl)methoxy]-1-methyl-4-isopropyl-7-oxabicyclo[2.2.1]heptane]
≥ 80%: pest or weed control at 1200 g/ha [1] | inhibition at 1200 g/ha [2] | inhibition at 1200 g/ha (Digitaria ciliaris [3]) | inhibition at 1200 g/ha (Echinochloa crus-galli [4]) | inhibition at 1200 g/ha (Digitaria ciliaris [5]) | inhibition at 1200 g/ha (Echinochloa crus-galli [6])

CC(C)=CCO[C@H]1C[C@@]2(C(C)C)O[C@]1(C)C[C@H]2I [1-1073, (1R,2S,4S,5R)-5-iodo-1-methyl-2-(3-methylbut-2-enoxy)-4-isopropyl-7-oxabicyclo[2.2.1]heptane]
≥ 80%: pest or weed control at 1200 g/ha [1] | inhibition at 1200 g/ha [2] | inhibition at 1200 g/ha (Digitaria ciliaris [3]) | inhibition at 1200 g/ha (Echinochloa crus-galli [4]) | inhibition at 1200 g/ha (Digitaria ciliaris [5]) | inhibition at 1200 g/ha (Echinochloa crus-galli [6])

COc1ccccc1CO[C@H]1C[C@@]2(C(C)C)O[C@]1(C)C[C@H]2Br [1-1022, (1R,2S,4S,5R)-5-bromo-2-[(2-methoxyphenyl)methoxy]-1-methyl-4-isopropyl-7-oxabicyclo[2.2.1]heptane]
≥ 80%: pest or weed control at 1200 g/ha [1] | inhibition at 1200 g/ha [2] | inhibition at 1200 g/ha (Digitaria ciliaris [3]) | inhibition at 1200 g/ha (Echinochloa crus-galli [4]) | inhibition at 1200 g/ha (Digitaria ciliaris [5]) | inhibition at 1200 g/ha (Echinochloa crus-galli [6])

CC(C)C12CC(OCc3ccc(Br)cc3)C(C)(CC1Br)O2 (stereo not drawn) [1-1363, 5-bromo-2-[(4-bromophenyl)methoxy]-1-methyl-4-isopropyl-7-oxabicyclo[2.2.1]heptane]
≥ 80%: pest or weed control at 1200 g/ha [1] | inhibition at 1200 g/ha [2] | inhibition at 1200 g/ha (Digitaria ciliaris [3]) | inhibition at 1200 g/ha (Echinochloa crus-galli [4]) | inhibition at 1200 g/ha (Digitaria ciliaris [5]) | inhibition at 1200 g/ha (Echinochloa crus-galli [6])

CC(C)[C@@]12C[C@H](OCc3ccccc3F)[C@@](C)(C[C@H]1I)O2 [1-1094, (1R,2S,4S,5R)-2-[(2-fluorophenyl)methoxy]-5-iodo-1-methyl-4-isopropyl-7-oxabicyclo[2.2.1]heptane]
≥ 80%: pest or weed control at 1200 g/ha [1] | inhibition at 1200 g/ha [2] | inhibition at 1200 g/ha (Digitaria ciliaris [3]) | inhibition at 1200 g/ha (Echinochloa crus-galli [4]) | inhibition at 1200 g/ha (Digitaria ciliaris [5]) | inhibition at 1200 g/ha (Echinochloa crus-galli [6])

CCc1ccccc1COC1CC2(C(C)C)OC1(C)CC2Br (stereo not drawn) [1-1346, 5-bromo-2-[(2-ethylphenyl)methoxy]-1-methyl-4-isopropyl-7-oxabicyclo[2.2.1]heptane]
≥ 80%: pest or weed control at 1200 g/ha [1] | inhibition at 1200 g/ha [2] | inhibition at 1200 g/ha (Digitaria ciliaris [3]) | inhibition at 1200 g/ha (Echinochloa crus-galli [4]) | inhibition at 1200 g/ha (Digitaria ciliaris [5]) | inhibition at 1200 g/ha (Echinochloa crus-galli [6])

COc1ccccc1CO[C@H]1C[C@@]2(C(C)C)O[C@]1(C)C[C@H]2I [1-1088, (1R,2S,4S,5R)-5-iodo-2-[(2-methoxyphenyl)methoxy]-1-methyl-4-isopropyl-7-oxabicyclo[2.2.1]heptane]
≥ 80%: pest or weed control at 1200 g/ha [1] | inhibition at 1200 g/ha [2] | inhibition at 1200 g/ha (Digitaria ciliaris [3]) | inhibition at 1200 g/ha (Echinochloa crus-galli [4]) | inhibition at 1200 g/ha (Digitaria ciliaris [5]) | inhibition at 1200 g/ha (Echinochloa crus-galli [6])
